In patent US6310091A, “Fungicidal saponin, CAY-1, and isolation thereof from Capsium species fruit” (The United States of America as represented by the …, priority 2000, dated 2001):
Read-outs that look alike come from different tables or passages of the source.

How the values were obtained:
[1] = tested on: Candida species; details: a number of Candida species; cited from earlier work
[2] = tested on: Pneumocystis carinii; assay: Effect on Pneumocystis carinii viability (ATP-driven bioluminescent assay); type: cell-based; details: Pneumocystis carinii, read-out: Percent of Control Mean
Experimental: 3. Pneumocystis carinii. The effect of CAY-1 on Pneumocystis carinii was determined as described previously [Cushion et al., Antimicrob. Agents Chemother., 1997, 41:379-384, herein incorporated by reference]. This assay is based on an ATP-driven bioluminescent reaction and was used to determine the concentration of CAY-1 which decreased the P. carinii ATP pools.

Question: With `CC1(C)[C@@H](O[C@@H]2OC[C@H](O[C@@H]3O[C@H](CO)[C@@H](O)[C@H](O)[C@H]3O[C@@H]3OC[C@H](O)[C@H](O)[C@H]3O)[C@H](O)[C@H]2O[C@@H]2O[C@H](CO)[C@@H](O)[C@H](O)[C@H]2O)CC[C@]2(C)[C@H]3CC[C@]45OC[C@@]6(CC[C@](C)(C=O)C[C@H]64)[C@H](O)C[C@@]5(C)[C@]3(C)CC[C@@H]12` [deglucocyclamin] as the molecule, how does the inhibitory properties [1] read?
Answer: inhibitory properties

Question: What does the source list for `CC1(C)S[C@@H]2[C@H](NC(=O)[C@H](N)c3ccccc3)C(=O)N2[C@H]1C(=O)O` [Ampicillin, reference compound]?
Answer: activity at 29 µM ([2]; 24 h, Day 1, 10 μg/ml, 29 μM): 96%; activity at 29 µM ([2]; 48 h, Day 2, 10 μg/ml, 29 μM): 94.7%; activity at 29 µM ([2]; 72 h, Day 3, 10 μg/ml, 29 μM): 94.8%

Question: What does the source list for `N=C(N)c1ccc(OCCCCCOc2ccc(C(=N)N)cc2)cc1` [Pentamidine, reference compound]?
Answer: activity at 2.9 µM ([2]; 24 h): 46.2%; activity at 29 µM ([2]; 24 h): 5.4%; activity at 2.9 µM ([2]; 48 h): 22%; activity at 29 µM ([2]; 48 h): 3.5%; activity at 2.9 µM ([2]; 72 h): 3.9%; activity at 29 µM ([2]; 72 h): 1.2%

Question: For cyclainorin, which inhibitory properties [1] is on record?
Answer: inhibitory properties
